Assay results published in ChEMBL document CHEMBL5143625, “Isolation, synthesis and bioactivity evaluation of isoquinoline alkaloids from Corydalis hendersonii Hemsl. against gastric cancer in vitro and in vivo” (Bioorg Med Chem, 2022).
Calls of active or inactive are those of the source. The calls are words filed in the database; no cut-off is given here.

Experiments:
MGC-803 [1] = assay: Induction of apoptosis in human MGC-803 cells assessed as decrease in cytochrome C expression at 1.25 to 10 uM by western blot analysis; format: functional, cell-based; conditions: dose 1.25-10 µM, DDE = dose-dependent effect
GES1 = assay: Antiproliferative activity against human GES1 cells assessed as reduction in cell viability after 24 hrs by MTT assay; format: functional, cell-based; conditions: GES1, 24 h
MGC-803 [2] = assay: Antiproliferative activity against human MGC-803 cells assessed as EdU positive cells at 0.5 to 4 uM for 24 hrs by y EdU assay (reference value: 65.2%); format: functional; conditions: dose 0.5-4 µM
MGC-803 [3] = assay: Inhibition of PI3K/AKT/mTOR signalling pathway in human MGC-803 cells assessed as reduction in mTOR phosphorylation at 1.25 to 10 uM by western blot analysis; format: cell-based; conditions: dose 1.25-10 µM, DDE = dose-dependent effect
MGC-803 [4] = assay: Inhibition of PI3K/AKT/mTOR signalling pathway in human MGC-803 cells assessed as reduction in AKT phosphorylation at 1.25 to 10 uM by western blot analysis; format: cell-based; conditions: dose 1.25-10 µM, DDE = dose-dependent effect
HGC-27 [5] = assay: Induction of apoptosis in human HGC-27 cells assessed as reduction in BCl2 expression at 2 to 16 uM by western blot analysis; format: functional, cell-based; conditions: dose 2-16 µM, DDE = dose-dependent effect
[6] = Tmax in Sprague-Dawley rat at 50 mg/kg, ip measured upto hrs by LC-MS analysis; format: ADME, organism-based; conditions: in vivo, time < 24 hrs
MGC-803 [7] = assay: Induction of apoptosis in human MGC-803 cells assessed as increase in twin-kiling cell nuclei at 1.25 to 10 uM by Hoechst 33342 staining based fluorescent microscopic analysis; format: functional; conditions: dose 1.25-10 µM
MGC-803 [8] = assay: Induction of apoptosis in human MGC-803 cells assessed as increase in Bax expression at 1.25 to 10 uM by western blot analysis; format: functional, cell-based; conditions: dose 1.25-10 µM, DDE = dose-dependent effect
MGC-803 [9] = assay: Induction of apoptosis in human MGC-803 cells assessed as increase in cleaved caspase-9 expression at 1.25 to 10 uM by western blot analysis; format: functional, cell-based; conditions: dose 1.25-10 µM, DDE = dose-dependent effect
MGC-803 [10] = assay: Inhibition of PI3K/AKT/mTOR signalling pathway in human MGC-803 cells assessed as reduction in PI3K phosphorylation at 1.25 to 10 uM by western blot analysis; format: cell-based; conditions: dose 1.25-10 µM, DDE = dose-dependent effect
HGC-27 [11] = assay: Inhibition of PI3K/AKT/mTOR signalling pathway in human HGC-27 cells assessed as reduction in mTOR phosphorylation at 2 to 16 uM by western blot analysis; format: cell-based; conditions: dose 2-16 µM, DDE = dose-dependent effect
HGC-27 [12] = assay: Inhibition of DNA topoisomerase 1 in human HGC-27 cells assessed as relaxation of supercoiled plasmid pBR322 DNA at 15 to 30 uM incubated for 30 mins by agarose gel electrophoresis; format: cell-based; conditions: dose 15-30 µM
HGC-27 [13] = assay: Induction of apoptosis in human HGC-27 cells assessed as increase in cleaved caspase-3 expression at 2 to 16 uM by western blot analysis; format: functional, cell-based; conditions: dose 2-16 µM, DDE = dose-dependent effect
HGC-27 [14] = assay: Antiproliferative activity against human HGC-27 cells assessed as reduction in cell viability after 24 hrs by MTT assay; format: functional, cell-based; conditions: HGC-27, 24 h
MGC-803 [15] = assay: Inhibition of colony formation in human MGC-803 cells at 0.5 to 4 uM after 7 to 10 days by crystal violet staining based assay; format: functional, cell-based; conditions: dose 0.5-4 µM, time 7-10 day, DDE = dose-dependent effect
MGC-803 [16] = assay: Antitumor activity against human MGC-803 cells xenografted in immunodeficient nude mouse assessed as tumor volume at 50 mg/kg, ip administered for 3 weeks (reference value: 1039.6 mm3); format: functional
MGC-803 [17] = assay: Down regulation of MMP9 expression in human MGC-803 cells at 1.25 to 10 uM after 24 hrs by western blot analysis; format: functional, cell-based; conditions: dose 1.25-10 µM, DDE = dose-dependent effect
HGC-27 [18] = assay: Induction of apoptosis in human HGC-27 cells assessed as increase in Bax expression at 2 to 16 uM by western blot analysis; format: functional, cell-based; conditions: dose 2-16 µM, DDE = dose-dependent effect
MGC-803 [19] = assay: Induction of apoptosis in human MGC-803 cells assessed as increase in apoptotic cells at 1.25 to 10 uM after 48 hr by AnnexinV-FITC/PI staining based flow cytometric analysis (reference value: 2.71%); format: functional, cell-based; conditions: dose 1.25-10 µM, DDE = dose-dependent effect
HGC-27 [20] = assay: Inhibition of colony formation in human HGC-27 cells at 1 to 8 uM after 7 to 10 days by crystal violet staining based assay; format: functional, cell-based; conditions: dose 1-8 µM, time 7-10 day, DDE = dose-dependent effect
MGC-803 [21] = assay: Induction of cell cycle arrest in human MGC-803 cells assessed as cells accumulation at G2/M phase at 1.25 to 10 uM after 48 hrs by propidium iodide staining based flow cytometric analysis(reference value: 13.1%); format: functional; conditions: dose 1.25-10 µM
HGC-27 [22] = assay: Induction of apoptosis in human HGC-27 cells assessed as decrease in cytochrome C expression at 2 to 16 uM by western blot analysis; format: functional, cell-based; conditions: dose 2-16 µM, DDE = dose-dependent effect
HGC-27 [23] = assay: Induction of ROS generation in human HGC-27 cells at 2 to 16 uM by DCFH-DA staining based fluorescence microscopic analysis; format: functional, cell-based; conditions: dose 2-16 µM, DDE = dose-dependent effect
HGC-27 [24] = assay: Induction of apoptosis in human HGC-27 cells assessed as increase in twin-kiling cell nuclei at 2 to 16 uM by Hoechst 33342 staining based fluorescent microscopic analysis; format: functional; conditions: dose 2-16 µM
MGC-803 [25] = assay: Induction of ROS generation in human MGC-803 cells at 1.25 to 10 uM by DCFH-DA staining based fluorescence microscopic analysis; format: functional, cell-based; conditions: dose 1.25-10 µM, DDE = dose-dependent effect
HGC-27 [26] = assay: Inhibition of PI3K/AKT/mTOR signalling pathway in human HGC-27 cells assessed as reduction in PI3K phosphorylation at 2 to 16 uM by western blot analysis; format: cell-based; conditions: dose 2-16 µM, DDE = dose-dependent effect
[27] = Toxicity in immunodeficient nude mouse xenografted with human MGC-803 cells assessed as reduction in body weight at 50 mg/kg, ip administered for 3 weeks relative to control; format: organism-based; conditions: in vivo, 504 h
MGC-803 [28] = assay: Antitumor activity against human MGC-803 cells xenografted in immunodeficient nude mouse assessed as increase in TUNEL positive cells at 50 mg/kg, ip administered for 3 weeks by fluorescence microscopic analysis; format: functional, organism-based
MGC-803 [29] = assay: Antiproliferative activity against human MGC-803 cells assessed as reduction in cell viability after 24 hrs by MTT assay; format: functional, cell-based; conditions: MGC-803, 24 h
HGC-27 [30] = assay: Inhibition of cell migration in human HGC-27 cells assessed as reduction in migration at 1 to 8 uM for 24 hrs by transwell migration assay; format: functional, cell-based; conditions: dose 1-8 µM, DDE = dose-dependent effect
MGC-803 [31] = assay: Inhibition of cell migration in human MGC-803 cells assessed as reduction in migration at 0.5 to 4 uM for 24 hrs by wound healing assay; format: functional, cell-based; conditions: dose 0.5-4 µM, DDE = dose-dependent effect
HGC-27 [32] = assay: Down regulation of MMP9 expression in human HGC-27 cells at 2 to 16 uM after 24 hrs by western blot analysis; format: functional, cell-based; conditions: dose 2-16 µM, DDE = dose-dependent effect
HGC-27 [33] = assay: Inhibition of PI3K/AKT/mTOR signalling pathway in human HGC-27 cells assessed as reduction in AKT phosphorylation at 2 to 16 uM by western blot analysis; format: cell-based; conditions: dose 2-16 µM, DDE = dose-dependent effect
HGC-27 [34] = assay: Induction of mitochondrial membrane potential loss in human HGC-27 cells assessed as TMRE positive cells at 2 to 16 uM by TRME staining based flow cytometric analysis (reference value: 5.8%); format: functional, cell-based; conditions: dose 2-16 µM, DDE = dose-dependent effect

Oc1c(Cc2nccc3cc4c(cc23)OCO4)ccc2c1OCO2
Activity (MGC-803 [1]): Dde
IC50 (GES1): 98.4 µM
Activity (MGC-803 [2]): 19.9%
inhibition (MGC-803 [3]): Dde
inhibition (MGC-803 [4]): Dde
Activity (HGC-27 [5]): Dde
Tmax [6]: 2 h
Activity (MGC-803 [7]): 29.5%
Activity (MGC-803 [7]; DDE = dose-dependent effect): Dde
Activity (MGC-803 [8]): Dde
Activity (MGC-803 [9]): Dde
inhibition (MGC-803 [10]): Dde
inhibition (HGC-27 [11]): Dde
inhibition (HGC-27 [12]): Active
Activity (HGC-27 [13]): Dde
IC50 (HGC-27 [14]): 7.6 µM
inhibition (MGC-803 [15]): Dde
Activity (MGC-803 [16]): 440.1 mm3
Activity (MGC-803 [17]): Dde
Activity (HGC-27 [18]): Dde
Activity (MGC-803 [19]): Dde
inhibition (HGC-27 [20]): Dde
Activity (MGC-803 [21]): 54.4%
Activity (HGC-27 [22]): Dde
Activity (HGC-27 [23]): Dde
Activity (HGC-27 [24]): 41.1%
Activity (HGC-27 [24]; DDE = dose-dependent effect): Dde
Activity (MGC-803 [25]): Dde
inhibition (HGC-27 [26]): Dde
Activity [27]: Non-Toxic
Activity (MGC-803 [28]): Active
IC50 (MGC-803 [29]): 5.1 µM
inhibition (HGC-27 [30]): Dde
inhibition (MGC-803 [31]): Dde
Activity (HGC-27 [32]): Dde
inhibition (HGC-27 [33]): Dde
Activity (HGC-27 [34]): Dde
